Assay results reported in PubChem BioAssay AID248 (DTP/NCI, 2004).
Values joined by “and” are separate entries in the source; they are usually repeats but may differ in a detail not shown here. Equal values may be shown once. Inconclusive results and toxic doses are left out.

Tested on: L1210 leukemia ip in BDF1 mice, survival T/C
Test: NCI In Vivo Anticancer Drug Screen. Data for tumor model L1210 Leukemia (intraperitoneal) in B6D2F1 (BDF1) mice
Conditions: endpoint: mean survival time, higher = longer survival
In short: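 Value reflects the ratio of survival in compound-treated mice to survival in vehicle-treated controls, with both groups carrying the same transplanted tumor.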

[1] = dose: 100.0 mg/kg/injection, schedule: Q01DX001 (ip), vehicle: Klucel (hydroxypropylcellulose) (HPC)
[2] = dose: 200.0 mg/kg/injection, schedule: Q01DX001 (ip), vehicle: Klucel (hydroxypropylcellulose) (HPC)
[3] = dose: 100.0 mg/kg/injection, schedule: Q01DX009 (ip), vehicle: Klucel (hydroxypropylcellulose) (HPC)
[4] = dose: 200.0 mg/kg/injection, schedule: Q01DX009 (ip), vehicle: Klucel (hydroxypropylcellulose) (HPC)
[5] = dose: 400.0 mg/kg/injection, schedule: Q01DX009 (ip), vehicle: Klucel (hydroxypropylcellulose) (HPC)
[6] = dose: 100.0 mg/kg/injection, schedule: Q04DX003 (ip), vehicle: Klucel (hydroxypropylcellulose) (HPC)

In the case of CC(C)N=C(NC(C)C)c1ccc(NC(=O)Nc2ccc(NC(=O)Nc3ccc(C(=NC(C)C)NC(C)C)cc3)cc2)cc1, the T/C (dose: 1.88 mg/kg/injection, schedule: Q01DX Z (ip), vehicle: carboxymethylcellulose (CMC)) is reported as 101 % of control, the T/C (dose: 3.75 mg/kg/injection, schedule: Q01DX Z (ip), vehicle: carboxymethylcellulose (CMC)) is reported as 102 % of control and the T/C (dose: 7.5 mg/kg/injection, schedule: Q01DX Z (ip), vehicle: carboxymethylcellulose (CMC)) is reported as 116 % of control. The T/C (dose: 15.0 mg/kg/injection, schedule: Q01DX Z (ip), vehicle: carboxymethylcellulose (CMC)) was 102 % of control.
CC(C)(C)CC(C)(C)NCc1ccccc1 was tested, and the T/C (dose: 25.0 mg/kg/injection, schedule: Q04DX003 (ip), vehicle: saline with Tween-80) was 103 % of control, the T/C (dose: 50.0 mg/kg/injection, schedule: Q04DX003 (ip), vehicle: saline with Tween-80) was 92 % of control and the T/C (dose: 100.0 mg/kg/injection, schedule: Q04DX003 (ip), vehicle: saline with Tween-80) was 103 % of control.
In the case of C[N+](C)(C)CCCC1C2CCC(C2)C1C#N (configuration not stated), the T/C (dose: 3.13 mg/kg/injection, schedule: Q01DX009 (ip), vehicle: saline) is reported as 101 % of control, the T/C (dose: 6.25 mg/kg/injection, schedule: Q01DX009 (ip), vehicle: saline) is reported as 97 % of control and the T/C (dose: 12.5 mg/kg/injection, schedule: Q01DX009 (ip), vehicle: saline) is reported as 98 % of control and 101 % of control. For the same compound, the T/C (dose: 12.5 mg/kg/injection, schedule: Q04DX003 (ip), vehicle: saline) was 102 % of control, the T/C (dose: 25.0 mg/kg/injection, schedule: Q04DX003 (ip), vehicle: saline) was 98 % of control and the T/C (dose: 50.0 mg/kg/injection, schedule: Q04DX003 (ip), vehicle: saline) was 96 % of control.
CC(C)CN1CC(Br)C(=O)NC1=O (configuration not stated) was tested, and the T/C (dose: 25.0 mg/kg/injection, schedule: Q01DX Z (ip), vehicle: methylcellulose (MC)) was 92 % of control and the T/C (dose: 50.0 mg/kg/injection, schedule: Q01DX Z (ip), vehicle: methylcellulose (MC)) was 88 % of control.
In the case of O=NN(CCCl)C(=O)CCCCC(=O)N(CCCl)N=O, the T/C (dose: 25.0 mg/kg/injection, schedule: Q01DX001 (ip), vehicle: carboxymethylcellulose (CMC)) is reported as 154 % of control, the T/C (dose: 50.0 mg/kg/injection, schedule: Q01DX001 (ip), vehicle: carboxymethylcellulose (CMC)) is reported as 160 % of control and the T/C [1] is reported as 75 % of control. The T/C (dose: 100.0 mg/kg/injection, schedule: Q01DX001 (ip), vehicle: carboxymethylcellulose (CMC)) was 165 % of control, the T/C [2] was 67 % of control and the T/C (dose: 200.0 mg/kg/injection, schedule: Q01DX001 (ip), vehicle: carboxymethylcellulose (CMC)) was 122 % of control.
COc1ccc(N=NN(C(C)=O)c2ccccc2)cc1 was tested, and the T/C [3] was 111 % of control, the T/C (dose: 100.0 mg/kg/injection, schedule: Q04DX003 (ip), vehicle: saline) was 102 % of control and the T/C [4] was 110 % of control. For the same compound, the T/C (dose: 200.0 mg/kg/injection, schedule: Q04DX003 (ip), vehicle: saline) was 111 % of control, the T/C [5] was 96 % of control and the T/C (dose: 400.0 mg/kg/injection, schedule: Q04DX003 (ip), vehicle: saline) was 123 % of control.
For COc1ccc(C23CCCC(=O)C2C2C(=O)CCCC23c2ccc(OC)cc2)cc1 (configuration not stated), the T/C [1] was 100 % of control, the T/C [6] was 100 % of control and the T/C [2] was 97 % of control. For the same compound, the T/C (dose: 200.0 mg/kg/injection, schedule: Q04DX003 (ip), vehicle: Klucel (hydroxypropylcellulose) (HPC)) was 101 % of control, the T/C (dose: 400.0 mg/kg/injection, schedule: Q01DX001 (ip), vehicle: Klucel (hydroxypropylcellulose) (HPC)) was 100 % of control and the T/C (dose: 400.0 mg/kg/injection, schedule: Q04DX003 (ip), vehicle: Klucel (hydroxypropylcellulose) (HPC)) was 95 % of control.
In the case of CC(C)C(C)(O)C(N)=O (configuration not stated), the T/C (dose: 100.0 mg/kg/injection, schedule: Q01DX001 (ip), vehicle: saline) is reported as 106 % of control and the T/C (dose: 200.0 mg/kg/injection, schedule: Q01DX001 (ip), vehicle: saline) is reported as 101 % of control.
With CNC(=O)Nc1cc(C)ccc1OC the T/C [3] was 100 % of control, the T/C [4] was 104 % of control and the T/C [5] was 109 % of control.
CC(C)NC(=O)CN=NNc1nc[nH]c1C(N)=O was tested, and the T/C (dose: 25.0 mg/kg/injection, schedule: Q01DX001 (ip), vehicle: Klucel (hydroxypropylcellulose) (HPC)) was 95 % of control, the T/C (dose: 25.0 mg/kg/injection, schedule: Q04DX003 (ip), vehicle: Klucel (hydroxypropylcellulose) (HPC)) was 99 % of control and the T/C (dose: 50.0 mg/kg/injection, schedule: Q01DX001 (ip), vehicle: Klucel (hydroxypropylcellulose) (HPC)) was 100 % of control. For the same compound, the T/C (dose: 50.0 mg/kg/injection, schedule: Q04DX003 (ip), vehicle: Klucel (hydroxypropylcellulose) (HPC)) was 94 % of control, the T/C [1] was 97 % of control and the T/C [6] was 101 % of control.
COc1ccccc1/C=C/C(=O)O was tested, and the T/C (dose: 25.0 mg/kg/injection, schedule: Q04DX002 (ip), vehicle: Klucel (hydroxypropylcellulose) (HPC)) was 98 % of control, the T/C (dose: 50.0 mg/kg/injection, schedule: Q04DX002 (ip), vehicle: Klucel (hydroxypropylcellulose) (HPC)) was 100 % of control and the T/C (dose: 100.0 mg/kg/injection, schedule: Q04DX002 (ip), vehicle: Klucel (hydroxypropylcellulose) (HPC)) was 88 % of control.
